BindingDB's records for doi:10.1111/cbdd.12841 (Zhejiang University of Technology, 2017)

Target: T1, Amine oxidase [flavin-containing] B (Homo sapiens, UniProt P27338)
T1 sequence (P27338 whole entry): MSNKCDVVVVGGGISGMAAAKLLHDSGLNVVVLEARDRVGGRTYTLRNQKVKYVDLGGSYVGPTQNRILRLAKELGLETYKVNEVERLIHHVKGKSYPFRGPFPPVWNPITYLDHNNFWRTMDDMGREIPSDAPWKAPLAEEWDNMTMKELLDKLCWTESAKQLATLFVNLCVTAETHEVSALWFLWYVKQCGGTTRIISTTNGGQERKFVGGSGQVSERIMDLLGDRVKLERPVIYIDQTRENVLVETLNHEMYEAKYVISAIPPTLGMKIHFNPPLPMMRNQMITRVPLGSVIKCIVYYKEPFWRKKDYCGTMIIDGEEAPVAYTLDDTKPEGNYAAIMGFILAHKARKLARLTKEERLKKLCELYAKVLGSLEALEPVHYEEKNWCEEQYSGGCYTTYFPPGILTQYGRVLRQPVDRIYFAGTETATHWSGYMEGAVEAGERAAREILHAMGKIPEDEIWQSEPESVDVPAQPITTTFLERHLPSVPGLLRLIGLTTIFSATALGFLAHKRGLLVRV
Experiment: In vitro MAO-A/B Inhibition Assay
Description: The inhibitory activities of flavones were determined in vitro by using fluorescent probe method following the general procedure described in the literature. [Li et al., Nat. Commun., 5:3276]

Structure (SMILES): O=C(CCCCc1cn(Cc2ccc3oc(-c4ccccc4)cc(=O)c3c2)nn1)Nc1ccc(F)cc1 [N-(4-fluorophenyl)-5-(1-((4-oxo-2-phenyl-4H-chromen-6-yl)methyl)-1H-1,2,3-triazol-4-yl)pentanamide (Az1k10)]
- IC50: 151 µM

Structure (SMILES): O=c1cc(-c2ccccc2)oc2ccc(Cn3nncc3COc3ccc(F)cc3)cc12 [6-((5-((4-fluorophenoxy)methyl)-1H-1,2,3-triazol-1-yl)methyl)-2-phenyl-4H-chromen-4-one (Az1k13)]
- IC50: 322 µM

Structure (SMILES): O=c1cc(-c2ccccc2)oc2ccc(Cn3nncc3COc3ccc(CNC4CC4)cc3)cc12 [6-((5-((4-((cyclopropylamino)methyl)phenoxy)methyl)-1H-1,2,3-triazol-1-yl)methyl)-2-phenyl-4H-chromen-4-one (Az1k16)]
- IC50: 97.4 µM

Structure (SMILES): Cc1ccc(NC(=O)CCCCc2cn(Cc3ccc4oc(-c5ccccc5)cc(=O)c4c3)nn2)cc1 [5-(1-((4-oxo-2-phenyl-4H-chromen-6-yl)methyl)-1H-1,2,3-triazol-4-yl)-N-(p-tolyl)pentanamide (Az1k9)]
- IC50: 413 µM

Structure (SMILES): Cc1ccc(NC(=O)CCCCc2cn(Cc3ccc4oc(-c5ccc(Cl)cc5)cc(=O)c4c3)nn2)cc1 [5-(1-((2-(4-chlorophenyl)-4-oxo-4H-chromen-6-yl)methyl)-1H-1,2,3-triazol-4-yl)-N-(p-tolyl)pentanamide (Az2k9)]
- IC50: 513 µM

Structure (SMILES): O=c1cc(-c2ccc(Cl)cc2)oc2ccc(Cn3cc(COc4ccc(CNC5CC5)cc4)nn3)cc12 [2-(4-chlorophenyl)-6-((4-((4-((cyclopropylamino)methyl)phenoxy)methyl)-1H-1,2,3-triazol-1-yl)methyl)-4H-chromen-4-one (Az2k16)]
- IC50: 93.9 µM

Structure (SMILES): O=C(CCc1cn(Cc2ccc3oc(-c4ccc(Cl)cc4)cc(=O)c3c2)nn1)Nc1ccccc1 [3-(1-((2-(4-chlorophenyl)-4-oxo-4H-chromen-6-yl)methyl)-1H-1,2,3-triazol-4-yl)-N-phenylpropanamide (Az2k4)]
- IC50: 321 µM

Structure (SMILES): O=c1cc(-c2ccc(Cl)cc2)oc2ccc(Cn3cc(COc4cccc(O)c4)nn3)cc12 [2-(4-chlorophenyl)-6-((4-((3-hydroxyphenoxy)methyl)-1H-1,2,3-triazol-1-yl)methyl)-4H-chromen-4-one (Az2k15)]
- IC50: 71.3 µM

Structure (SMILES): O=c1cc(-c2ccc(Cl)cc2)oc2ccc(Cn3cc(COc4ccc(F)cc4)nn3)cc12 [2-(4-chlorophenyl)-6-((4-((4-fluorophenoxy)methyl)-1H-1,2,3-triazol-1-yl)methyl)-4H-chromen-4-one (Az2k13)]
- IC50: 291 µM

Structure (SMILES): O=C(CCCCc1cn(Cc2ccc3oc(-c4ccc(Cl)cc4)cc(=O)c3c2)nn1)Nc1ccccc1 [5-(1-((2-(4-chlorophenyl)-4-oxo-4H-chromen-6-yl)methyl)-1H-1,2,3-triazol-4-yl)-N-phenylpentanamide (Az2k8)]
- IC50: 626 µM

Structure (SMILES): O=c1cc(-c2ccc(Cl)cc2)oc2ccc(Cn3cc(COc4ccc(Cl)cc4)nn3)cc12 [6-((4-((4-chlorophenoxy)methyl)-1H-1,2,3-triazol-1-yl)methyl)-2-(4-chlorophenyl)-4H-chromen-4-one (Az2k14)]
- IC50: 505 µM

Structure (SMILES): O=c1cc(-c2ccccc2)oc2ccc(Cn3nncc3COc3ccc(Cl)cc3)cc12 [6-((5-((4-chlorophenoxy)methyl)-1H-1,2,3-triazol-1-yl)methyl)-2-phenyl-4H-chromen-4-one (Az1k14)]
- IC50: 527 µM

Structure (SMILES): O=C(CCCCc1cn(Cc2ccc3oc(-c4ccc(Cl)cc4)cc(=O)c3c2)nn1)Nc1ccc(F)cc1 [5-(1-((2-(4-chlorophenyl)-4-oxo-4H-chromen-6-yl)methyl)-1H-1,2,3-triazol-4-yl)-N-(4-fluorophenyl)pentanamide (Az2k10)]
- IC50: 377 µM

Structure (SMILES): Cc1ccc(NC(=O)CCc2cn(Cc3ccc4oc(-c5ccc(Cl)cc5)cc(=O)c4c3)nn2)cc1 [3-(1-((2-(4-chlorophenyl)-4-oxo-4H-chromen-6-yl)methyl)-1H-1,2,3-triazol-4-yl)-N-(p-tolyl)propanamide (Az2k5)]
- IC50: 287 µM
